For series [1], the system named is colon tumor incidence. The following applies: AOM treated rats, cited from earlier work.
Series [2] relates to ACF formation. As to conditions: given in the diet, short-term study (ref 10); cited from earlier work.
Series [3] relates to aberrant crypt foci (ACF) induced by azoxymethane (AOM) in the colon. The experiment in a line: AOM-induced colonic aberrant crypt foci (ACF) bioassay. The class given is in vivo, Male F344 rats. The source says: The inventors designed a bioassay to examine whether SFN and PEITC can inhibit the formation of aberrant crypt foci (ACF) induced by azoxymethane (AOM) in Fischer rats. ACF has been recognized as an early preneoplastic lesion of colon cancer (7-9) and it is generally observed that agents that inhibit colonic ACF formation would show chemopreventive activity against colon cancer (10). […] The structures of SFN and PEITC and their NAC conjugates are shown below. Two treatment regimens in which SFN and PEITC or their NAC conjugates were administered either after (post-initiation) or before (initiation) AOM treatment were used in the bioassay in order better to define the possible mechanism of action. [drawing 1] Male F344 rats were from Charles River (Kingston, N.Y.). They were fed AIN-76A diet (5% corn oil) and tap water ad libitum. […] PEITC and SFN were purchased from Aldrich Chemical Company (Milwaukee, Wis.) and LTK Labs, Inc. (St. […] The corresponding NAC conjugates were prepared by a published method (13, 26). The purity of the conjugates was greater than 97% as determined by high-performance liquid chromatography. AOM obtained from Ash-Stevens (Detroit, Mich.) was dissolved in saline and administered subcutaneously once a week for two weeks. SFN and PEITC in corn oil and the NAC conjugates in saline (10% DMSO) were given by gavage. Groups 2 to 5 were given 5 μmol SFN or PEITC or 20 μmol of the NAC conjugates, three doses each week for eight weeks, beginning two days after the last dose of AOM. Groups 6 to 9 were treated with three doses of ITC compounds (20 μmol ITC or 50 μmol ITC-NAC) once daily and the last dose was given 2 hr before AOM dosing. This dosing regimen was repeated during the second week of AOM dosing. Groups 10 to 13 were treated with ITCs (5 μmol/dose) or the conjugates (20 μmol/dose) only, three times weekly for eight weeks. Group 14 served as the control group. The bioassay was terminated at week 10 after the second AOM treatment. The colon was processed for microscopic examination and the ACF were recorded using a standard procedure described previously (14). […] For statistical analysis, means were compared among the groups using one-way analysis of variance (ANOVA) followed by Fisher's protected t-test.

In series [4] the target is N,N-dimethylnitrosamine (NDMA) demethylase (CYP2E1) (Rattus norvegicus, UniProt P05182). The following applies: rat liver microsomes; previously shown (ref 26); cited from earlier work.
Sequence of N,N-dimethylnitrosamine (NDMA) demethylase (CYP2E1) (P05182 whole entry): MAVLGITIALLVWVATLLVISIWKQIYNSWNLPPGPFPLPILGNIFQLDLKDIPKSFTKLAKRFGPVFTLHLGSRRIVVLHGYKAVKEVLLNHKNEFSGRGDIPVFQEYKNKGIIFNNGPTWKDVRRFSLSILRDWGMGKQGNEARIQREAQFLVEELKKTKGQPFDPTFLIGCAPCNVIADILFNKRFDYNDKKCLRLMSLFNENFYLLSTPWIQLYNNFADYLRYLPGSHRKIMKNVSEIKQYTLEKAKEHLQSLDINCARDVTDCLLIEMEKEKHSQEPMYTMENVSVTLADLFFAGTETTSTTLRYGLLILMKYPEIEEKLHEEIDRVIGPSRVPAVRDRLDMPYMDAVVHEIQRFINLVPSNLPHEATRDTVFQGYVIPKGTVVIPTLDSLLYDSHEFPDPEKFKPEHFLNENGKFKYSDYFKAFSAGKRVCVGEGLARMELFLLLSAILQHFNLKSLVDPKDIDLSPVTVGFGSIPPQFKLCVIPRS
The conditions of series [5]: dog, in vivo; cited from earlier work.
Series [6] can be described thus: Toxicity observations (body weight, gastrointestinal symptoms) in the ACF bioassay.
The test system of series [7] is colon tumorigenesis. As to conditions: rats; at the dose level studied (refs 29, 30); cited from earlier work.
The test system of series [8] is esophagus tumorigenesis. The following applies: rats; at the dose level studied (refs 29, 30); cited from earlier work.
Series [9] deals with lung tumorigenesis. As to conditions: previously reported; cited from earlier work.
Setting [10] is: initiation (pretreatment): 20 μmol ITC or 50 μmol ITC-NAC before AOM, negative = enhancement.
The mark [11] stands for this setting: initiation (pretreatment): 20 μmol ITC or 50 μmol ITC-NAC by gavage before AOM, AOM alone (Group 1) 52.
Where [12] appears, read: initiation (pretreatment): 20 μmol ITC or 50 μmol ITC-NAC by gavage before AOM, AOM alone (Group 1) 153.
The mark [13] stands for this setting: post-initiation: 5 μmol SFN or PEITC or 20 μmol NAC conjugate by gavage, three doses weekly for eight weeks after AOM, AOM alone (Group 1) 52.
Setting [14] is: post-initiation: 5 μmol SFN or PEITC or 20 μmol NAC conjugate by gavage, three doses weekly for eight weeks after AOM, AOM alone (Group 1) 153.
Where [15] appears, read: post-initiation: 5 μmol SFN or PEITC or 20 μmol NAC conjugate, three doses weekly for eight weeks after AOM.
The mark [16] stands for this setting: ITC compound only, no AOM: 5 μmol/dose ITC or 20 μmol/dose conjugate, three times weekly for eight weeks.
The mark [17] stands for this setting: initiation: ITC compound by gavage before AOM, 20 μmol ITC or 50 μmol ITC-NAC, three doses once daily, last 2 hr before AOM, repeated in second week.
Setting [18] is: post-initiation: ITC compound by gavage after AOM, 5 μmol SFN or PEITC or 20 μmol NAC conjugate, three doses each week for eight weeks.

Entries after “also recorded” stand apart in the source; their conditions may differ. Marks after values point to notes of the source that are not given here. Some results are limits rather than exact numbers.

On to `S=C=NCc1ccccc1` [BITC, benzyl isothiocyanate], for which the “Effect on colon tumor incidence, initiation phase” value in series [1] (initiation phase (ref 34)) is given as “inhibit”. Moreover, the “Effect on colon tumor incidence, post-initiation phase” value in series [1] (post-initiation phase (ref 34)) was “not during the post-initiation phase”. Moreover, the “Activity towards ACF formation” value in series [2] is “inactive; also recorded: slightly induce ACF formation”.

For the molecule `S=C=NCCc1ccccc1` [PEITC, phenethyl isothiocyanate], in series [3] (setting [10]), the “Percent of inhibition compared to Group 1, Total aberrant crypt foci” value is on record as “(25)^c %” and the “Percent of inhibition compared to Group 1, aberrant crypt foci >4 Crypts” value is recorded as “(33)^f %”. Besides, in series [3] (setting [11]), the “Number of aberrant crypt foci >4 Crypts” value stood at 35. Besides, the “Number of aberrant crypt foci Total” value in [3] (setting [12]) worked out at 115. Besides, the “Number of aberrant crypt foci >4 Crypts” value in series [3] (setting [13]) stood at 27. For the same molecule, in series [3] (setting [14]), the “Number of aberrant crypt foci Total” value was 100. Moreover, in series [3] (setting [15]), the “Percent of inhibition compared to Group 1, Total aberrant crypt foci” value was “(35)^d %” and the “Percent of inhibition compared to Group 1, aberrant crypt foci >4 Crypts” value is “(48)^c %”. Also, in series [2], the “Activity towards ACF formation” value was “inactive”. Further, the “Inhibition of NDMA demethylase (CYP2E1)” value in series [4] is listed as “inhibitors”. In addition, in series [5], the “Dose at which dose related weight loss became statistically significant” value is 8 mg/kg; the “Dose at which signs of irritation of the mucosa of the urinary bladder were reported” value is at least 4 mg/kg/day; the “Dose levels at which diarrhea and vomiting, with gastrointestinal irritation, occurred sporadically” value was at least 2 mg/kg.

Consider `CC(=O)N[C@@H](CSC(=S)NCCc1ccccc1)C(=O)O` [PEITC-NAC, N-acetylcysteine conjugate of PEITC], for which the “Number of aberrant crypt foci >4 Crypts” value was determined as 0 in series [3] (setting [16]), 74 in series [3] (setting [11]) and 38 in series [3] (setting [13]). The “Number of aberrant crypt foci Total” value worked out at 0 in series [3] (setting [16]), 198 in series [3] (setting [12]) and 113 in series [3] (setting [14]). In addition, the “Percent of inhibition compared to Group 1, Total aberrant crypt foci” value is on record as “(−29)^e %” in series [3] (setting [10]) and “(26)^e %” in series [3] (setting [15]). For the same molecule, the “Percent of inhibition compared to Group 1, aberrant crypt foci >4 Crypts” value in series [3] (setting [10]) is “(−42)^c %”; in series [3] (setting [15]), “(27)^f %”. Moreover, the “Inhibition of NDMA demethylase (CYP2E1)” value in series [4] is given as “inhibitors”. Also, the “Average Body Weight at Termination” value in series [6] (setting [16]) came out at 301; in series [6] (setting [17]), 303; in series [6] (setting [18]), 313.

On to `C[S+]([O-])CCCCN=C=S` (centres unmarked) [SFN, sulforaphane], for which the “Number of aberrant crypt foci >4 Crypts” value in [3] (setting [16]) is 0; in series [3] (setting [11]) it was 35; in [3] (setting [13]), 30. The “Number of aberrant crypt foci Total” value in series [3] (setting [16]) was 0; in [3] (setting [12]) it was 109; in [3] (setting [14]), 103. The “Percent of inhibition compared to Group 1, Total aberrant crypt foci” value in [3] (setting [10]) is listed as “(29)^c %”; in series [3] (setting [15]), “(33)^d %”. The “Percent of inhibition compared to Group 1, aberrant crypt foci >4 Crypts” value in series [3] (setting [10]) is listed as “(33)^f %”; in [3] (setting [15]), “(42)^b,c %”. For the same molecule, the “Average Body Weight at Termination” value in [6] (setting [16]) came to 309; in [6] (setting [17]) it was 310; in series [6] (setting [18]), 301.

Consider `S=C=NCCCCCCc1ccccc1` [phenylhexyl ITC], for which, in series [7], the “Effect on colon tumorigenesis” value is “enhanced”. The “Effect on esophagus tumorigenesis” value in [8] is reported as “enhanced”. Also, the “Effect on lung tumorigenesis” value in series [9] is “potent inhibitor”.

On to “N-acetylcysteine conjugate of SFA [SFN-NAC]”, for which the “Number of aberrant crypt foci >4 Crypts” value in series [3] (setting [16]) is recorded as 0; in series [3] (setting [11]), 44; in [3] (setting [13]), 31. For the same molecule, the “Number of aberrant crypt foci Total” value in [3] (setting [16]) came out at 0; in [3] (setting [12]), 120; in series [3] (setting [14]), 116. Moreover, the “Percent of inhibition compared to Group 1, Total aberrant crypt foci” value in series [3] (setting [10]) is “(22)^c %”; in [3] (setting [15]) it was “(24)^c %”. Further, the entries for the “Percent of inhibition compared to Group 1, aberrant crypt foci >4 Crypts” value in series [3] (setting [10]) and in [3] (setting [15]) were 15% and “(40)^c %”, respectively. In addition, the “Average Body Weight at Termination” value worked out at 312 in series [6] (setting [16]), 304 in series [6] (setting [17]) and 297 in series [6] (setting [18]).

The values above are taken from patent US6433011B1, “Method for inhibiting formation of aberrant crypt foci in the colon of a mammal” (American Health Foundation, priority 2000, dated 2002).
